The text below walks through data of ChEMBL document CHEMBL2176959, “Design and synthesis of potent, orally efficacious hydroxyethylamine derived β-site amyloid precursor protein cleaving enzyme (BACE1) inhibitors” (J Med Chem, 2012).

One series can be described thus: in vitro. Conditions: pig, LLC-PK1.
A short description of series [1]: Plasma concentration in Sprague-Dawley rat at 30 mg/kg, po at 4 hrs. Also on record: dose 30 mg/kg, route oral. Format: ADME, organism-based.
A short description of series [2]: AUC (0 to infinity) in Sprague-Dawley rat at 10 mg/kg, po. Also noted: time infinity, dose 10 mg/kg, route oral. Format: ADME, organism-based. Conditions: plasma.
Series [3] in a line: Drug uptake in Sprague-Dawley rat CSF at 30 mg/kg, po at 4 hrs. Format: ADME, organism-based. Also on record: dose 30 mg/kg, route oral. Conditions: cerebrospinal fluid, read-out: Drug uptake.
Series [4] is described as follows: Volume of distribution at steady state in Sprague-Dawley rat at 2 mg/kg, iv. Format: ADME, organism-based. Also on record: dose 2 mg/kg, route intravenous. Conditions: in vivo, read-out: Vdss.
Series [5] in a line: Tmax in Sprague-Dawley rat at 10 mg/kg, po. Format: ADME, organism-based. Also noted: dose 10 mg/kg, route oral. To be noted: in vivo.
A short description of series [6]: Oral bioavailability in Sprague-Dawley rat at 10 mg/kg. Format: ADME, organism-based. Conditions: in vivo.
Series [7] in a line: Cmax in Sprague-Dawley rat at 10 mg/kg, po. Format: ADME, organism-based. Also noted: dose 10 mg/kg, route oral. Conditions: in vivo.

Broadly, the Papp is the rate of passage across a membrane or cell layer, normalised by area and donor concentration. Consider `COCC(=O)N[C@@H](Cc1cccc(-c2ccncc2)c1)[C@H](O)CN[C@H]1CC2(CCC2)Oc2ncc(CC(C)(C)C)cc21`, for which the apparent permeability (Papp) at 2 h in “in vitro” was found to be 220 nm/s.

For orientation: AUC(0-inf) means total exposure, with the tail of the curve extrapolated. A word on the Tmax: it is the time at which the peak concentration occurs. The term Cmax denotes the maximum level reached in the sampled fluid or tissue. Regarding `COCC(=O)N[C@@H](Cc1cccc(-c2nccs2)c1)[C@H](O)CN[C@H]1CC2(CCC2)Oc2ncc(CC(C)(C)C)cc21`, the figures for the concentration at 4 h in series [1] and in series [3] were 3.27 µM and 0.052 µM, respectively. The AUC(0-inf) in series [2] worked out at 9.03 µg·h/mL. In addition, the Vd in series [4] is 2.19 L/kg. Moreover, in series [5], the Tmax is 3.33 h. In addition, the bioavailability in series [6] came out at 120%. In addition, the Cmax in series [7] was determined as 1.89 µg/mL.

Turning to `C#Cc1cccc(C[C@H](NC(=O)COC)[C@H](O)CN[C@H]2CC3(CCC3)Oc3ncc(CC(C)(C)C)cc32)c1`, the concentration at 4 h in series [1] was 3.54 µM; in series [3], 0.078 µM. In series [2], this compound came in with an AUC(0-inf) of 24.2 µg·h/mL. In series [4], the Vd worked out at 1.54 L/kg. Besides, in series [5], the Tmax turned out to be 5.33 h. Moreover, the bioavailability in series [6] came to 100%. In addition, the peak concentration (Cmax) in series [7] stood at 4.86 µg/mL.

In “in vitro”, `COCC(=O)N[C@@H](Cc1ccc(F)c(-c2nccs2)c1)[C@H](O)CN[C@H]1CC2(CCC2)Oc2ncc(CC(C)(C)C)cc21` showed an apparent permeability (Papp) at 2 h of 280 nm/s.

The compound `COCC(=O)N[C@@H](Cc1cc(-c2nccs2)ccc1F)[C@H](O)CN[C@H]1CC2(CCC2)Oc2ncc(CC(C)(C)C)cc21` registered a Papp at 2 h in the series “in vitro” of 110 nm/s.
